Results from PMC3526597, “High-Glucose-Induced Endothelial Cell Injury Is Inhibited by a Peptide Derived from Human Apolipoprotein E” (PLoS ONE, 2012).
Peptide text beside a SMILES is read from it.

Test: Corneal penetration assay (aqueous humor level after eye drop)
Format: in vivo, mouse
Details: for Total / Measure concentration: mouse aqueous humor, UPLC-MS; for Measure concentration: sample mixed with 1 ml 0.1% formic acid
Experimental: The apoEdp peptide (LRKLRKRLLLRKLRKRLL) is rich in cationic amino acids lysine and arginine. ApoEdp is more cationic than HIV-1 Tat cell penetrating peptide (Table 1). We hypothesized that apoEdp could act as a corneal penetrating peptide.
Mouse eyes were treated with 1% apoEdp drops. At 0, 1, 2, 3, hours post-treatment, mice were sacrificed and eyes were enucleated. The globes were washed with sterile PBS three times and aqueous humor was aspirated using a 27-gauge needle and 1 mL syringe. The mouse aqueous humor samples were mixed with 1 ml of 0.1% formic acid solution and allowed to stand for 5 minutes. The samples were filtered with a 0.2-micron filter and analyzed using a Waters Acquity UPLC system (Milford, MA) with mass spectrophotometrical detection. […] These peaks included 483.9 m/z 604.4 m/z, and 805.6 m/z. We used the […] peak for the analysis because it was the strongest. For the UPLC analysis, we used a BEH300 C4 column 2.1 mm×100 mm×1.7 µm. A 2 component mobile phase was used with component 1:0.1% formic Acid, and Component 2: Acetonitrile with 0.1% formic acid. The flow rate was 0.2 ml/min and gradient elution was used with a linear gradient.

[1] = 2 hours after 1% apoEdp eye drop, left eye
[2] = 2 hours after 1% apoEdp eye drop, right eye
[3] = 3 hours after 1% apoEdp eye drop, left eye
[4] = 3 hours after 1% apoEdp eye drop, right eye

time to reach the anterior chamber of the eye (applied topically (1% eye drop), mouse eyes): ≤ 3 h
Total [1]: 3.89 ng
Measure concentration [1]: 0.004 µg/mL
Total [2]: 5.9 ng
Measure concentration [2]: 0.006 µg/mL
Total [3]: 58.08 ng
Measure concentration [3]: 0.058 µg/mL
Total [4]: 36.3 ng
Measure concentration [4]: 0.036 µg/mL
SMILES: CC(=O)N[C@@H](CC(C)C)C(=O)N[C@@H](CCCNC(=N)N)C(=O)N[C@@H](CCCCN)C(=O)N[C@@H](CC(C)C)C(=O)N[C@@H](CCCNC(=N)N)C(=O)N[C@@H](CCCCN)C(=O)N[C@@H](CCCNC(=N)N)C(=O)N[C@@H](CC(C)C)C(=O)N[C@@H](CC(C)C)C(=O)N[C@@H](CC(C)C)C(=O)N[C@@H](CCCNC(=N)N)C(=O)N[C@@H](CCCCN)C(=O)N[C@@H](CC(C)C)C(=O)N[C@@H](CCCNC(=N)N)C(=O)N[C@@H](CCCCN)C(=O)N[C@@H](CCCNC(=N)N)C(=O)N[C@@H](CC(C)C)C(=O)N[C@@H](CC(C)C)C(N)=O [apoEdp] (Ac-LRKLRKRLLLRKLRKRLL-NH2)
